# Test results published in ChEMBL document CHEMBL5346877, “A-ring-fused pyrazoles of dihydrotestosterone targeting prostate cancer cells via the downregulation of the androgen receptor” (Eur J Med Chem, 2023).
# Active and inactive are the calls of the source. The rule behind the calls is not given here.
# Key:
# [1] = target: T1, Androgen receptor (Homo sapiens) (UniProt P10275); assay: Antagonist activity at AR transcription in human 22Rv1 cells assessed as reduction in PSA mRNA expression at 10 uM incubated for 24 hrs in presence of R1881 by qPCR analysis; assay type: cell-based; settings: filed as antagonist
# T1 sequence (whole entry): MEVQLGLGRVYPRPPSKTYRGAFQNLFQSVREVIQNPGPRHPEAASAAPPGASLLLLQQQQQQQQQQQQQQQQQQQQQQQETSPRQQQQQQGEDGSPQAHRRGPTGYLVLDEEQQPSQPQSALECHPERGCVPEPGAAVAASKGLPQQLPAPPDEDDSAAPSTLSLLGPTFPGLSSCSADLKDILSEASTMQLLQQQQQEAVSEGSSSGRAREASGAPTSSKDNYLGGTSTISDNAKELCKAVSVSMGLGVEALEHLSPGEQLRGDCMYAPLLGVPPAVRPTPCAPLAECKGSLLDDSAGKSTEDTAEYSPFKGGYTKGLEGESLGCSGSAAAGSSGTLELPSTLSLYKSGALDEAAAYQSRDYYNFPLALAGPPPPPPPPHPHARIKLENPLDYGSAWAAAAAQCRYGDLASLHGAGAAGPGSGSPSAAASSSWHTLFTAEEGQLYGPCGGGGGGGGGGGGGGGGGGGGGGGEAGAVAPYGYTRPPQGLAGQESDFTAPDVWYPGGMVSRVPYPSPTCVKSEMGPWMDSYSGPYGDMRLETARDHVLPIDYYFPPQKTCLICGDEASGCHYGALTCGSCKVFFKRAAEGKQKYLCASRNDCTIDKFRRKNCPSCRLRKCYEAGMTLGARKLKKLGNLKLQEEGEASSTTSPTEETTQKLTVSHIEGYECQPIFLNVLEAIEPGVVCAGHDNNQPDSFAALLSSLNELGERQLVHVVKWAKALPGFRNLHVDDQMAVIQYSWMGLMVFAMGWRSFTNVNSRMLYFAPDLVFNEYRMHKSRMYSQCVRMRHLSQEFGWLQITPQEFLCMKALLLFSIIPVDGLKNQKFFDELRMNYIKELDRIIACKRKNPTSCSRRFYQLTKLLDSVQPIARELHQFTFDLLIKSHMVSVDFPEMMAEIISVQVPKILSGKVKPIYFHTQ
# [2] = target: T1, Androgen receptor (Homo sapiens); assay: Antagonist activity at AR in human LNCaP cells assessed as reduction in PSA expression at 2 to 10 uM incubated for 72 hrs by Western blotting analysis; assay type: cell-based; set-up: scale not given: the % may be the effect or the level left; settings: filed as antagonist, dose 2-10 µM
# [3] = target: T1, Androgen receptor (Homo sapiens); assay: Antagonist activity at AR in human LNCaP cells assessed as reduction in Nkx3.1 expression at 2 to 10 uM incubated for 72 hrs by Western blotting analysis; assay type: cell-based; set-up: scale not given: the % may be the effect or the level left; settings: filed as antagonist, dose 2-10 µM
# LAPC4 [4] = assay: Antiproliferative activity against human LAPC4 cells assessed as viable cells at 2 to 10 uM incubated for 24 to 48 hrs by resazurin dye based assay; assay type: functional; settings: dose 2-10 µM, time 24-48 hrs
# [5] = target: T1, Androgen receptor (Homo sapiens); assay: Antagonist activity at AR in human 22Rv1 cells incubated for 24 hrs in presence of R1881 by Western blotting analysis; assay type: cell-based; settings: filed as antagonist
# Androgen receptor = target: T2, Androgen receptor (Homo sapiens, UniProt P10275); assay: Antagonist activity at AR transcription in human 22Rv1 cells incubated for 24 hrs in presence of R1881; assay type: cell-based
# T2 sequence (P10275 whole entry): T1 sequence (whole entry)
# LAPC4 [6] = assay: Reversal of AR degradation in human LAPC4 cells at 10 to 20 uM preincubated for 1 hr followed by bav-degalutamide addition and measured after 4 hrs; assay type: functional, cell-based; settings: dose 10-20 µM, time 5.0 hrs
# DU-145 [7] = assay: Induction of cell cycle arrest in human DU-145 cells assessed as reduction S phase cells incubated for 48 hrs; assay type: functional, cell-based
# CWR22R [8] = assay: Induction of cell cycle arrest in human 22Rv1 cells assessed as reduction S phase cells incubated for 48 hrs; assay type: functional, cell-based
# CWR22R [9] = assay: Cytotoxicity against human 22Rv1 cells assessed as cell viability at 20 uM incubated for 72 hrs by resazurin dye based microplate reader assay; assay type: functional; settings: read-out: Activity
# LAPC4 [10] = assay: Inhibition of colony formation in human LAPC4 cells at 10 uM incubated for 10 days by crystal violet staining based assay; assay type: functional; settings: LAPC4, 240 h, time 10 day
# [11] = target: T1, Androgen receptor (Homo sapiens); assay: Binding affinity to His6 tagged recombinant human AR LBD expresssed in Escherichia coli BL21(DE3) cells by MST assay; settings: filed as antagonist
# [12] = target: T1, Androgen receptor (Homo sapiens); assay: Antagonist activity at AR in human LAPC4 cells assessed as reduction in PSA expression at 10 uM incubated for 24 hrs in presence of R1881 by Western blotting analysis; assay type: cell-based; settings: filed as antagonist
# LAPC4 [13] = assay: Antiproliferative activity against human LAPC4 cells; assay type: functional; settings: time 72 hrs
# DU-145 [14] = assay: Cytotoxicity against human DU-145 cells assessed as cell viability at 20 uM incubated for 72 hrs by resazurin dye based microplate reader assay; assay type: functional; settings: read-out: Activity
# LAPC4 [15] = assay: Induction of apoptosis in human LAPC4 cells assessed as PARP-1 expression at 2 to 10 uM incubated for 48 to 72 hrs; assay type: functional, cell-based; settings: dose 2-10 µM, time 48-72 hrs
# LAPC4 [16] = assay: Cytotoxicity against human LAPC4 cells assessed as cell viability at 20 uM incubated for 72 hrs by resazurin dye based microplate reader assay; assay type: functional; settings: read-out: Activity
# LAPC4 [17] = assay: Induction of apoptosis in human LAPC4 cells assessed as cleaved caspase-7 expression at 2 to 10 uM incubated for 48 to 72 hrs; assay type: functional, cell-based; settings: dose 2-10 µM, time 48-72 hrs
# LAPC4 [18] = assay: Antiproliferative activity against human LAPC4 cells assessed as decrease in […] at 2 to 10 uM incubated for 24 to 72 hrs by resazurin dye based assay; assay type: functional, cell-based; settings: dose 2-10 µM, time 24-72 hrs
# [19] = target: T1, Androgen receptor (Homo sapiens); assay: Antagonist activity at AR in human LNCaP-abl cells assessed as reduction in PSA expression at 10 uM incubated for 24 hrs in presence of R1881 by Western blotting analysis; assay type: cell-based; settings: filed as antagonist
# [20] = target: T1, Androgen receptor (Homo sapiens); assay: Antagonist activity at AR in human LNCaP cells incubated for 24 hrs in presence of R1881 by Western blotting analysis; assay type: cell-based; settings: filed as antagonist
# [21] = target: T1, Androgen receptor (Homo sapiens); assay: Antagonist activity at AR in human LAPC4 cells incubated for 24 hrs in presence of R1881 by Western blotting analysis; assay type: cell-based; settings: filed as antagonist, dose 1.25-10 µM
# [22] = target: T1, Androgen receptor (Homo sapiens); assay: Antagonist activity at AR in human LAPC4 cells assessed as reduction in Nkx3.1 expression at 10 uM incubated for 24 hrs in presence of R1881 by Western blotting analysis; assay type: cell-based; settings: filed as antagonist
# LAPC4 [23] = assay: Induction of cell cycle arrest in human LAPC4 cells assessed as reduction S phase cells incubated for 48 hrs; assay type: functional, cell-based
# LAPC4 [24] = assay: Induction of apoptosis in human LAPC4 cells assessed as cleaved caspase-3 expression at 2 to 10 uM incubated for 48 to 72 hrs; assay type: functional, cell-based; settings: dose 2-10 µM, time 48-72 hrs
# [25] = target: T1, Androgen receptor (Homo sapiens); assay: Antagonist activity at AR transcription in human LAPC4 cells assessed as reduction in AR mRNA expression at 10 uM incubated for 24 hrs in presence of R1881 by qPCR analysis; assay type: cell-based; settings: filed as antagonist
# LAPC4 [26] = assay: Inhibition of colony formation in human LAPC4 cells at 5 uM incubated for 10 days by crystal violet staining based assay; assay type: functional, cell-based; settings: time 10.0 day
# [27] = target: T1, Androgen receptor (Homo sapiens); assay: Antagonist activity at AR transcription in human LAPC4 cells assessed as reduction in PSA mRNA expression at 10 uM incubated for 24 hrs in presence of R1881 by qPCR analysis; assay type: cell-based; settings: filed as antagonist
# [28] = target: T1, Androgen receptor (Homo sapiens); assay: Antagonist activity at AR in human LNCaP-abl cells assessed as reduction in phosphorylation at S81 at 10 uM incubated for 24 hrs in presence of R1881 by Western blotting analysis; assay type: cell-based; settings: filed as antagonist
compound,measurement,setting,value
Cc1c2c(nn1-c1ccc(F)cc1)C[C@@H]1CC[C@@H]3[C@H](CC[C@]4(C)[C@@H](O)CC[C@@H]34)[C@@]1(C)C2,Activity,[1],Active
same,Activity,[2],100%
same,Activity,[3],100%
same,Activity,LAPC4 [4],>80%
same,Activity,[5],Dose-Dependent Effect
same,IC50,Androgen receptor,1180 nM
same,Activity,LAPC4 [6],Active
same,Activity,DU-145 [7],inactive
same,Activity,CWR22R [8],Active
same,viability at 20 µM,CWR22R [9],26%
same,inhibition at 10 µM,LAPC4 [10],3%
same,Activity,[11],Active
same,Activity,[12],Active
same,GI50,LAPC4 [13],7.9 µM
same,viability at 20 µM,DU-145 [14],≥ 100%
same,Activity,LAPC4 [15],Active
same,viability at 20 µM,LAPC4 [16],38%
same,Activity,LAPC4 [17],Active
same,Activity,LAPC4 [18],Active
same,Activity,[19],Active
same,Activity,[20],Dose-Dependent Effect
same,Activity,[21],Dose-Dependent Effect
same,Activity,[22],Active
same,Activity,LAPC4 [23],Active
same,Activity,LAPC4 [24],Active
same,Activity,[25],Active
same,inhibition,LAPC4 [26],Active
same,Activity,[27],Active
same,Activity,[28],Active
